{
  "source": "patent US9101547B2",
  "about": "“Enteric-coated capsule containing cationic nanoparticles for oral insulin delivery” (NANO AND ADVANCED MATERIALS INSTITUTE LIMITED, priority 2011, dated 2015)",
  "test_system": "diabetic rats",
  "test": "In vivo study after administration in diabetic rats (blood glucose level-time profiles)",
  "method": "The effect of insulin-loaded nanoparticles on the blood glucose levels is shown by comparing with that of the S.C. injection of insulin. […] SC injection of the insulin solution produces a sharp decrease in blood glucose level (90% in 2 h), which gradually returns to the basal level at 10 h, whereas the hypoglycemia effect is less significant after oral administration of the enteric-coated capsules which produces a slower but prolonged reduction in blood glucose level. The blood glucose level of the diabetic rats increases slightly during the first 4 hours of the experiment, possibly due to physical stress during handling and blood sampling. The hypoglycemic effect and the pharmacological availability (PA) of the enteric-coated capsule, determined by the dose-corrected AAC0-24h over 24 h relative to SC free-form insulin, as noted in Table 4, are 32.9% and 9.2%, respectively.",
  "data": [
    {"substance": "insulin [Insulin free-form (SC)]", "values": [
      {"measurement": "hypoglycemic effect (FIG. 4)", "value": "significant hypoglycemic effect"},
      {"measurement": "time at which blood glucose returns to the basal level", "setting": "SC injection", "value": 10, "unit": "h"},
      {"measurement": "decrease in blood glucose level", "setting": "SC injection, in 2 h", "value": 90, "unit": "%"},
      {"measurement": "PA (pharmacological availability)", "setting": "dose-corrected AAC0-24h relative to SC free-form insulin", "value": 100, "unit": "%"},
      {"measurement": "Cmin = minimum relative basal glucose concentration in the blood", "setting": "mean ± SD, n = 3 per group", "value": "11.72 ± 1.1", "unit": "%"},
      {"measurement": "AAC0-24 h", "setting": "n = 3 per group", "value": 1008, "unit": "% h"},
      {"measurement": "Tmax = time at minimum relative basal glucose concentration in the blood", "setting": "n = 3 per group", "value": 2, "unit": "h"},
      {"measurement": "Hypoglycemic Effect", "setting": "over 24 h, n = 3 per group", "value": 35.2, "unit": "%"}
    ]}
  ]
}
